Experiments:
ApoA-I mRNA = assay: Regulation of ApoA-I mRNA in HepG2 cells (real-time PCR); assay type: cell-based; set-up: key: Active: When 100 μM of the tested compound allowed ApoA-I mRNA in HepG2 cells to increase more than 15%, then the test compound was known as an ApoA active compound; conditions: 100 μM, 48 h, relative to DMSO control
Experimental: Experiment 5. Regulation of the Tested Compounds on ApoA-I mRNA HepG2 cells were cultured for 24 h in a 24-well plate with 400 μl of MEM medium containing 0.5% (v/v) of fetal bovine serum. Then each of the tested compounds (100 μM) and the positive control RVX-208 (100 μM) were added. The cells were cultured for another 48 h. The medium was aspirated out. After washing with 200 μl of PBS, 85 μl of cell lysis solution was added into the cells in each well. The cells were incubated at room temperature for 5 to 10 min to be completely dissolved and detached. The mRNA was extracted from the cells with a kit. The extracted mRNA were used for a real-time fluorescence quantitative PCR detection with RNA Fluorescence (RiboGreen) Quantitation Assay Kit and ApoA-I mRNA Primer-Probe Mixture from the company of Applied Biosystems.
After obtaining the Ct values, the induction fold of each test compound relative to DMSO control was calculated. The induction fold was used to reflect the ability of regulating ApoA-I mRNA for the tested compounds. When 100 μM of the tested compound allowed ApoA-I mRNA in HepG2 cells to increase more than 15%, then the test compound was known as an ApoA active compound.

C57BL/6 mice = assay: Serum NO level in C57 mice after oral gavage; assay type: in vivo; conditions: oral gavage 150 mg/kg (positive drug 5 mg/kg), FIG. 1
Description: Experimental method: 60 eight-week-old C57BL/6 mice (level: SPF; gender: male; source: Shanghai SLAC Laboratory Animal Co., Ltd.) were selected. […] were selected as the blank control. 12 mice were used as the positive drug control (isosorbide mononitrate). 12 mice were used as […] administration group. The other 32 mice were randomly divided into 4 groups, 8 mice per group, which are […] administration group, […] administration group, […] administration group, and […] administration group, respectively. The tested compounds of the positive drug control group and each administration group were dissolved in DMSO and then PEG400 was added thereto. The mixture was shaken and mixed thoroughly. At last, 10% of HP-β-CD was added. The mixture was shaken and mixed thoroughly. The ratio of each solvent was DMSO: PEG400:10% of HP-β-CD=5:67.5:27.5. The administration groups were administered by oral gavage at the dose of 150 mg/kg. The positive drug control group was administered at the dose of 5 mg/kg. The mice in each group were sacrificed by inhaling excess CO2 at 10 min, 30 min, 60 min, 120 min, 180 min, and 240 min after administration. The blood was collected into a 1.5 mL centrifuge tube, standing at room temperature for more than 30 min, and then centrifuged (3000 rpm, 10 min). The supernatant serum was aspirated, and stored at -80° C. for testing. After the blood was collected, the heart was cut with the thoracic aorta. Three parts of the heart were weighed and placed into cryovials, rapidly frozen in liquid nitrogen, and cryopreserved at -80° C. for testing. The aorta and aortic arch were weighed, rapidly frozen in liquid nitrogen, and cryopreserved at -80° C. for testing. The content of NO in the serum of C57BL/6 mice was determined by using the total NO test kit (Beyotime).

[1] = Plasma stability in vitro, human plasma; conditions: for Content of Tested Substance (n = 2): human plasma, 2 μM, 37° C., in % (unit assumed)
Experimental: (§1) Experimental method: The tested compounds (2 μM) were added into mouse or human plasma, and incubated at 37° C. Samples were taken at 0, 10, 30, 60 and 120 min respectively. The reaction was stopped by adding a stop agent. The mixture was sufficient shaken, and centrifuged at 4000 rpm for 10 min at 4° C. The supernatant was taken. The concentrations of the tested compounds and their metabolite (H130) in the supernatant were measured by LC-MS/MS.

[2] = Plasma stability in vitro, mouse plasma; conditions: for Content of Tested Substance (n = 2): CD-1 mice plasma, 2 μM, 37° C., in % (unit assumed)
Experimental: as §1

Row | Content of Tested Substance (n = 2) ([1]; 0 min) | Content of Tested Substance (n = 2) ([1]; 10 min) | Content of Tested Substance (n = 2) ([1]; 30 min) | Content of Tested Substance (n = 2) ([1]; 60 min) | Content of Tested Substance (n = 2) ([1]; 120 min) | stability in human plasma ([1]; within 2 h) | Content of Tested Substance (n = 2) ([2]; 0 min) | Content of Tested Substance (n = 2) ([2]; 10 min) | Content of Tested Substance (n = 2) ([2]; 30 min) | Content of Tested Substance (n = 2) ([2]; 60 min) | Content of Tested Substance (n = 2) ([2]; 120 min) | stability in mouse plasma ([2]; within 2 h) | Molecule | Upregulation of Apoa-I Mrna Level (ApoA-I mRNA) | time after administration at which serum NO level rose to its maximum, then decreased (C57BL/6 mice)
1 |  |  |  |  |  |  |  |  |  |  |  |  | 2-[4-(5,7-dimethoxy-4-oxo-3,4-dihydro-quinazolin-2-yl)-2,6-dimethyl-phenoxy]-ethyl 4-(2-oxo-3-nitroxymethyl-1,2,5-oxadiazol-3-methyl)oxy-4-oxo-butyrate [Compound H111] | Active | 1 h
2 | 100.0 | 99.5 | 96.4 | 97.5 | 95.8 | good stability | 100.0 | 101.4 | 94.8 | 99.7 | 99.1 | good stability | COc1cc(OC)c2c(=O)[nH]c(-c3cc(C)c(OCCO[N+](=O)[O-])c(C)c3)nc2c1 [Compound H101, 2-(4-(2-nitrooxy-ethoxy)-3,5-dimethylphenyl)-5,7-dimethoxyquinazolin-4(3H)-one] | Active | 2 h
3 |  |  |  |  |  |  |  |  |  |  |  |  | COc1cc(OC)c2c(=O)[nH]c(-c3cc(C)c(OCCOC(=O)OC4COC5C(O[N+](=O)[O-])COC45)c(C)c3)nc2c1 (stereo not drawn) [Compound H119, 2-[4-(5,7-dimethoxy-4-oxo-3,4-dihydro-quinazolin-2-yl)-2,6-dimethyl-phenoxy]-ethyl (6-nitroxy-hexahydrofuro[3,2-b]furan-3-yl)-carbonate] | Active | 1 h

From patent publication US10456405B2, “Nitric oxide-releasing prodrug molecule of substituted quinazolines” (ZHEJIANG HUAHAI PHARMACEUTICAL CO., LTD, priority 2015, dated 2019)
